Results on 13 compounds are retold here after US20260159520A1, “HETEROBIFUNCTIONAL COMPOUNDS AND METHODS OF TREATING DISEASE” (Halda Therapeutics OpCo, Inc., priority 2022, published 2026).

For orientation: Kd means the free concentration of one partner at which half of the binding sites on the other are occupied at equilibrium, for simple one-to-one binding. A lower Kd goes with tighter binding. What is called GI50 is the concentration that inhibits growth by half.

One test has as its target T1, CDK9 (Homo sapiens, UniProt P50750).
T1 construct: made in house; host or cells: E. coli BL21-derived host (T7 phage) or HEK-293 ('BEK-293' [sic])
Nature of the test: KdELECT binding assay, CDK9. To be noted: CDK9, Table 7. As to the method: Compounds were tested using a KdELECT. Kinase-tagged T7 phage strains were prepared in an E. coli host derived from the BL21 strain. E. coli were grown to log-phase and infected with T7 phage and incubated with shaking at 32° C. until lysis. The lysates were centrifuged and filtered to remove cell debris. The remaining kinases were produced in BEK-293 cells and subsequently tagged with DNA for qPCR detection. Streptavidin-coated magnetic beads were treated with biotinylated small molecule ligands for 30 minutes at room temperature to generate affinity resins for kinase assays. The liganded beads were blocked with excess biotin and washed with blocking buffer (SeaBlock (Pierce), 1% BSA, 0.05% Tween 20, 1 mM DTT) to remove unbound ligand and to reduce non-specific binding. Binding reactions were assembled by combining kinases, liganded affinity beads, and test compounds in 1× binding buffer (20% SeaBlock, 0.17×PBS, 0.05% Tween 20, 6 mM DTT). Test compounds were prepared as 111× stocks in 100% DMSO. Kd values were determined using an 11-point 3-fold compound dilution series with three DMSO control points. All compounds for Kd measurements are distributed by acoustic transfer (non-contact dispensing) in 100% DMSO. The compounds were then diluted directly into the assays such that the final concentration of DMSO was 0.9%. All reactions performed in polypropylene 384-well plate. Each was a final volume of 0.02 mL. The assay plates were incubated at room temperature with shaking for 1 hour and the affinity beads were washed with wash buffer (lx PBS, 0.05% Tween 20). The beads were then re-suspended in elution buffer (lx PBS, 0.05% Tween 20, 0.5 μM nonbiotinylated affinity ligand) and incubated at room temperature with shaking for 30 minutes. The kinase concentration in the eluates was measured by qPCR.

The subject of test [1] is T-Rex 293 cell line SC3 cells lacking increased expression of androgen receptor protein. Nature of the test: Cellular growth inhibition, T-Rex 293 SC3 cells without doxycycline. It counts as cell-based. To be noted: not exposed to doxycycline, 72 hours, CellTiter-Glo 2.0. The procedure, abridged:
(§1)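 Doxycycline (10 ng/mL) was either included or omitted to toggle wild-type androgen receptor expression in SC3 cells, a T-Rex 293 clone, grown in stripped-serum, phenol red-free medium. After 72 hours with compound, viable cells were quantified by CellTiter-Glo 2.0.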

The test system of another test is T47D cells. Kind of test: Cellular growth inhibition assay for T47D cells. To be noted: Homo sapiens, 72 hours, CellTiter-Glo 2.0. It counts as cell-based. As to the method:
T47D cells were purchased from American Type Cell Culture (ATCC Cat #HTB-133) and then seeded on poly-D-lysine coated, black clear-bottom 384-well plates at 3000/well in 25 μL Dulbecco's Modified Eagle Medium (DMEM) supplemented with 10% w/w Fetal bovine serum (FBS), 0.2 units/mL recombinant human insulin (Gibco Cat #12585014), and 1% w/w Pen-Strep. Pen-Strep is a commercially available mixture of penicillin G and streptomycin, which is used in mammalian cell culture media to prevent bacterial contamination. Dulbecco's Modified Eagle Medium (DMEM) supplemented with 10% w/w fetal bovine serum (FBS), 0.2 units/mL recombinant human insulin, and 1% w/w Pen-Strep is herein referred to as Treatment Medium. Following seeding of cells in the plates, the plates were spun at 300×g for 30 seconds, then equilibrated to room temperature for 30 minutes, and then deposited in a humidified tissue culture incubator maintained at 37° C. with 5% CO2.
At 24 hours after seeding of the cells, dilutions of test compound were prepared in DMSO and dissolved in Treatment Medium, to achieve a final DMSO concentration of 0.5% w/w, thereby providing the Test Compound Solution. A 25 μL aliquot of the Test Compound Solution was added to cells in the well plates. An equal volume of a solution containing DMSO and Treatment Medium was used as a negative control. Following treatment of cells with Test Compound Solution or said equal volume of a solution containing DMSO and Treatment Medium, the plates were spun at 300×g for 30 seconds, and then left in an incubator for 72 hours.
At the end of the treatment duration, cell viability was quantified with CellTiter-Glo 2.0 reagent (Promega Cat #G9243). For this purpose, plates were equilibrated to room temperature for 30 minutes, and then 25 μL of CellTiter-Glo 2.0 reagent was added to cells in the plate wells. Plates were then agitated on a shaker for two minutes at 500 rpm and subsequently incubated at room temperature for 10 minutes. Following incubation, the plates were spun at 3000×g for 30 seconds, then sealed with an optical adhesive cover, and luminescence readings were measured with an EnVision Plate Reader (Perkin Elmer).
Data was normalized using zero luminescence for baseline. A four-parameter non-linear regression curve fit was applied to dose-response data in GraphPad Prism data analysis software to determine the half-maximal growth inhibitory concentration (GI50) for each test compound.
In general terms: Cellular ATP, detected with luciferase, serves as a proxy for viable cell number.

Test [2] has as its system T-Rex 293 cell line SC3 cells having increased expression of androgen receptor protein. Nature of the test: Cellular growth inhibition, T-Rex 293 SC3 cells with doxycycline (increased androgen receptor expression). It counts as cell-based. Particulars: with 10 ng/mL doxycycline (increased androgen receptor), 72 hours, CellTiter-Glo 2.0. The procedure, abridged: as §1
In the next test the test system is VCaP cells. Nature of the test: Cellular growth inhibition assay for VCaP cells. The test is classed as cell-based. To be noted: Homo sapiens, 72 hours, CellTiter-Glo 2.0.

Molecules are shown by their SMILES.

T1 sequence (P50750 whole entry): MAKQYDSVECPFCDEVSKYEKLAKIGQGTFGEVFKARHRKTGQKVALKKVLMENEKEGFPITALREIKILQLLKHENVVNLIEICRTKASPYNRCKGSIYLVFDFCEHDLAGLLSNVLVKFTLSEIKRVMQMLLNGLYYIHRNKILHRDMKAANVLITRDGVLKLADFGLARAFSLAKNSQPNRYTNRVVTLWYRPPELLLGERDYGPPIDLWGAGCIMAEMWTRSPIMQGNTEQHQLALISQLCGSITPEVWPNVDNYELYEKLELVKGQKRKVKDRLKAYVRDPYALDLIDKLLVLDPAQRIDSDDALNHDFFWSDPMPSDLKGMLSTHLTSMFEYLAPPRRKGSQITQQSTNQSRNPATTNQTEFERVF

In turn, `CC1(C)[C@H](NC(=O)c2cnc(N3CCC(OCCOCCOCCOCCOCCNS(=O)(=O)c4ccc(Nc5ncc(Br)c(Nc6cccc(F)c6C(N)=O)n5)cc4)CC3)nc2)C(C)(C)[C@H]1Oc1ccc(C#N)c(Cl)c1` [Compound I-15] showed a Kd at CDK9 of more than 2.5 µM. For the same compound, the concentration for 50% growth inhibition (GI50) in test [1] is more than 3.5 µM; in the test with T47D cells it was 0.5 to 1.5 µM; in test [2] it was more than 3.5 µM.
As to `CC1(C)[C@H](NC(=O)c2cnc(N3CCC(OCCCN4CCN(CCCNS(=O)(=O)c5ccc(Nc6ncc(Br)c(Nc7cccc(F)c7C(N)=O)n6)cc5)CC4)CC3)nc2)C(C)(C)[C@H]1Oc1ccc(C#N)c(Cl)c1` [Compound I-17], at CDK9, the Kd is more than 2.5 µM. For the same compound, the results for the GI50 (in test [1]; in the test with T47D cells; in test [2]) were more than 3.5 µM, 1.5 to 3 µM and more than 3.5 µM, respectively.
The compound `CN(CCOCCOCCOCCOCCNS(=O)(=O)c1ccc(Nc2ncc(Br)c(Nc3cccc(F)c3C(N)=O)n2)cc1)c1ncc(C(=O)N[C@H]2C(C)(C)[C@H](Oc3ccc(C#N)c(Cl)c3)C2(C)C)cn1` [Compound I-20] showed a Kd at CDK9 of more than 2.5 µM. Also, the GI50 in test [1] was more than 3.5 µM; in the test with T47D cells, less than 0.5 µM; in test [2], more than 3.5 µM.
In turn, `CN(CCCN1CCN(CCCNS(=O)(=O)c2ccc(Nc3ncc(Br)c(Nc4cccc(F)c4C(N)=O)n3)cc2)CC1)c1ncc(C(=O)N[C@H]2C(C)(C)[C@H](Oc3ccc(C#N)c(Cl)c3)C2(C)C)cn1` [Compound I-22, 2-((3-(4-(3-((4-((5-bromo-4-((2-carbamoyl-3-fluorophenyl)amino)pyrimidin-2-yl)amino)phenyl)sulfonamido)propyl)piperazin-1-yl)propyl) (methyl)amino)-N-((1r,3r)-3-(3-chloro-4-cyanophenoxy)-2,2,4,4-tetramethylcyclobutyl) pyrimidine-5-carboxamide] yielded a Kd at CDK9 of 0.5 to 2.5 µM. The GI50 is more than 3.5 µM in test [1], less than 0.5 µM in the test on T47D cells and 1 to 3.5 µM in test [2].
For the compound `CCc1cnn2c(NCc3ccc(N(C)CC4CCN(CC5CCN(c6ncc(C(=O)N[C@H]7C(C)(C)[C@H](Oc8ccc(C#N)c(Cl)c8)C7(C)C)cn6)CC5)CC4)nc3)cc(N3CCCC[C@H]3CCO)nc12` [Compound I-59, N-((1r,3r)-3-(3-chloro-4-cyanophenoxy)-2,2,4,4-tetramethylcyclobutyl)-2-(4-((4-(((5-(((3-ethyl-5-((S)-2-(2-hydroxyethyl)piperidin-1-yl)pyrazolo[1,5-a]pyrimidin-7-yl)amino)methyl)pyridin-2-yl)(methyl)amino)methyl)piperidin-1-yl)methyl)piperidin-1-yl)pyrimidine-5-carboxamide], the Kd at CDK9 was less than 0.05 µM. The GI50 in test [1] is 0.1 to 1 µM; in the test with T47D cells, less than 0.5 µM; in test [2], less than 0.1 µM; in the test on VCaP cells it was 0.1 to 1 µM.
On to `CCc1cnn2c(NCc3ccc(OCCOCCN4CC5CN(c6ncc(C(=O)N[C@H]7C(C)(C)[C@H](Oc8ccc(C#N)c(Cl)c8)C7(C)C)cn6)CC5C4)nc3)cc(N3CCCC[C@H]3CCO)nc12` (some centres unmarked) [Compound I-62], for which the Kd on CDK9 fell in the range of 0.05 to 0.5 µM. Moreover, the GI50 in test [1] was 0.1 to 1 µM; in test [2], less than 0.1 µM; with VCaP cells it was 0.1 to 1 µM.
Take `CCc1cnn2c(NCc3ccc(OCCOC4CCN(C5CN(c6ncc(C(=O)N[C@H]7C(C)(C)[C@H](Oc8ccc(C#N)c(Cl)c8)C7(C)C)cn6)C5)CC4)nc3)cc(N3CCCC[C@H]3CCO)nc12` [Compound I-63]: the Kd at CDK9 is less than 0.05 µM. In addition, the GI50 (in test [1]; in test [2]; in the test on VCaP cells) was less than 0.1 µM each time.
Turning to `COc1cc(F)ccc1-c1ccnc2[nH]c(C3CCN(CCOCCOC4CCN(c5ncc(C(=O)N[C@H]6C(C)(C)[C@H](Oc7ccc(C#N)c(Cl)c7)C6(C)C)cn5)CC4)CC3)cc12` [Compound I-69], on CDK9, the Kd is less than 0.05 µM. Besides, the GI50 in test [1] was in the range of 0.1 to 1 µM; with T47D cells, 1.5 to 3 µM; in test [2], 0.1 to 1 µM; in the test on VCaP cells it was 0.1 to 1 µM.
As for `COc1cc(F)ccc1-c1ccnc2[nH]c(C3CCN(CCOCCOCCOCCOC4CCN(c5ncc(C(=O)N[C@H]6C(C)(C)[C@H](Oc7ccc(C#N)c(Cl)c7)C6(C)C)cn5)CC4)CC3)cc12` [Compound I-70], at CDK9, the Kd was 0.05 to 0.5 µM. Moreover, the GI50 was in the range of 1 to 3.5 µM in test [1], 1.5 to 3 µM in the test with T47D cells, 1 to 3.5 µM in test [2] and 0.1 to 1 µM with VCaP cells.
For the compound `CC(C)n1cc(-c2ccnc3[nH]c(C4CCN(CCOCCOC5CCN(c6ncc(C(=O)N[C@H]7C(C)(C)[C@H](Oc8ccc(C#N)c(Cl)c8)C7(C)C)cn6)CC5)CC4)cc23)ccc1=O` [Compound I-76], the Kd on CDK9 was less than 0.05 µM. For the same compound, the GI50 in test [1] was 0.1 to 1 µM; in the test with T47D cells, less than 0.5 µM; in test [2], 0.1 to 1 µM; with VCaP cells, less than 0.1 µM.
Turning to `CC(C)n1cc(-c2ccnc3[nH]c(C4CCN(CCOCCOCCOCCOC5CCN(c6ncc(C(=O)N[C@H]7C(C)(C)[C@H](Oc8ccc(C#N)c(Cl)c8)C7(C)C)cn6)CC5)CC4)cc23)ccc1=O` [Compound I-78], the Kd on CDK9 is less than 0.05 µM. The GI50 in test [1] was 0.1 to 1 µM; in the test on T47D cells it was 0.5 to 1.5 µM; in test [2] it was less than 0.1 µM; in the test on VCaP cells, less than 0.1 µM.
`CC1(C)[C@H](NC(=O)c2cnc(N3CCC(OCCN4C/C=C/CCOc5cccc(c5)-c5ccnc(n5)Nc5cccc(c5)C4)CC3)nc2)C(C)(C)[C@H]1Oc1ccc(C#N)c(Cl)c1` [Compound I-87, N-[3-(3-chloro-4-cyano-phenoxy)-2,2,4,4-tetramethyl-cyclobutyl]-2-[4-[2-[(16E)-20-oxa-5,7,14,27-tetrazatetracyclo [19.3.1.12,6.18,12]heptacosa-1(24),2(27),3,5,8(26),9,11,16, 21(25),22-decaen-14-yl]ethoxy]-1-piperidyl]pyrimidine-5-carboxamide] came in with a Kd at CDK9 of 0.5 to 2.5 µM. Moreover, the GI50 in test [1] was more than 3.5 µM; in the test on T47D cells it was 0.5 to 1.5 µM; in test [2] it was 0.1 to 1 µM; with VCaP cells it was more than 3.5 µM.
`CC1(C)[C@H](NC(=O)c2cnc(N3CCC(OCCOCCOCCOCCN4C/C=C/CCOc5cccc(c5)-c5ccnc(n5)Nc5cccc(c5)C4)CC3)nc2)C(C)(C)[C@H]1Oc1ccc(C#N)c(Cl)c1` [Compound I-90] gave a Kd at CDK9 of 0.5 to 2.5 µM. The GI50 in test [1] is more than 3.5 µM; in the test with T47D cells, less than 0.5 µM; in test [2], 0.1 to 1 µM; with VCaP cells it was 0.1 to 1 µM.
